Measured values reported in patent US7732200B2, “Materials and methods for nerve grafting, selection of nerve grafts, and in vitro nerve tissue culture” (University of Florida Research Foundation, Inc., priority 2001, dated 2010).

Legend:
chick DRG neurons = assay: Cryoculture assay using human nerve segments; assay type: cell-based; conditions: DRG neurons 24 h; P<0.001 vs vehicle
Protocol: Cryoculture bioassay. Cryoculture is a neurite outgrowth assay in which neurons are cultured directly on fresh/frozen nerve sections and was performed as described previously (Ferguson T A et al. [2000] Mol Cell Neurosci, 16:157-167). Briefly, chondroitinase- and vehicle-treated nerve segments were sectioned at 20 μm, mounted on sterile, aminopropyltriethoxysilane (APTS)-coated coverslips and stored at −20° C. until used. Where indicated, sections were treated with chondroitinase ABC (0.1 unit/ml) or vehicle (50 mM Tris-HCl, pH 8.0), containing 50 mM NaCl) for 2 h at 37° C. Purified dorsal root ganglionic (DRG) neurons from day 8 chick embryos were seeded directly on the nerve sections in a defined N2 medium (Bottenstein J E et al. [1980] Exp Cell Res 125:183-190) containing 10 ng/ml nerve growth factor. Cryoculture assays were terminated after 24 h of incubation by fixation with 100% methanol. Neuritic growth by DRG neurons was accessed by GAP-43 immunofluorescent labeling. Epifluorescent photomicrographs were acquired as described for tissue sections. Neurite lengths were measured directly using IMAGE-PRO PLUS software (MEDIA CYBERNETICS, Silver Springs, Md.). At least 250 neurons with neurites greater than one cell body (˜15 μm) were scored for each condition in each experiment. […]

sciatic nerve = assay: Axonal regeneration after bilateral sciatic nerve crush injury (axonotmesis); assay type: in vivo, rat; conditions: 1 U in 2 μl; 2 days after injury; 6 nerves per condition
Protocol: Surgical procedures for nerve transection and nerve crush experiments. All surgical procedures were performed according to Institutional Animal Care and Use Committee (IACUC) approved protocols. Young adult SPRAGUE DAWLEY rats (HARLAN Indianapolis, Ind.) were deeply anesthetized with xylazine (15 mg/kg, i.m.) followed by ketamine-HCl (110 mg/kg, i.p.). Six animals received bilateral nerve crush injuries. Sciatic nerves were exposed and then crushed with firm pressure for thirty seconds with a DUMONT #5 forceps at a site 4 mm distal to the tendon of the internal obdurator. The crush site was marked with an epineurial suture. In a separate set of experiments, eight rats received bilateral sciatic nerve transection injuries using serrated scissors. The proximal and distal stumps were […] by epineurial neurorrhaphy using 9-0 ETHILON sutures. Fibrin glue (fibrinogen and thrombin) was then applied to stabilize the union. […]
Immunocytochemistry. Axonal regeneration was assessed by GAP-43 immunofluorescence and digital image analysis. […]
The hypothesis that chondroitinase treatment improves axonal growth through the site of nerve crush injury was tested. […] Regenerating axons were labeled by GAP-43 immunofluorescence and scored by digital image analysis. […]

For chondroitinase ABC, the “growth-promoting properties of human nerves (neurite length)” value (chick DRG neurons) was “increased” and the “axonal regeneration after nerve crush injury (GAP-43 immunoreactivity) vs vehicle” value (sciatic nerve) was “not significantly effected”.
